Measured values from patent US12503503B2, “Bispecific anti-VEGF/ANG2 antibody formulation” (Hoffmann-La Roche Inc., priority 2018, dated 2025).
Read-outs that look alike come from different tables or passages of the source.

Assays:
[1] = test system: New Zealand White rabbits; conditions: methionine (5-25 mM) in vehicle, intravitreal 50 μL/eye up to six times, 14 days apart
Protocol: (§1) Three studies (in cynomolgus monkeys and in New Zealand White rabbits) were conducted in which methionine (5-25 mM) was a component of the vehicle, administered intravitreally (also 50 μL/eye) up to six times, 14 days apart.

[2] = test system: cynomolgus monkeys; conditions: 14 days apart
Protocol: A toxicity study in cynomolgus monkeys was conducted in which methionine (10 mM) was a component of the vehicle and of the formulated test article CrossMAb VEGFang2-0016 (faricimab). In this study, a total of 12 animals (6 males/6 females) were treated intravitreal with 50 μL/eye two times, 14 days apart. The left eyes were treated with the vehicle (containing 10 mM methionine) and the right eyes were treated with the formulated test article CrossMAb VEGFang2-0016 (faricimab), also containing 10 mM methionine.
as §1

[3] = molecular target: TIE2 (Homo sapiens, UniProt Q02763); conditions: Maisonpierre et al., Science 277 (1997); read-out: affinity to TIE2 (Kd); cited from earlier work
Chain of TIE2 (Q02763 23-1124, species assumed): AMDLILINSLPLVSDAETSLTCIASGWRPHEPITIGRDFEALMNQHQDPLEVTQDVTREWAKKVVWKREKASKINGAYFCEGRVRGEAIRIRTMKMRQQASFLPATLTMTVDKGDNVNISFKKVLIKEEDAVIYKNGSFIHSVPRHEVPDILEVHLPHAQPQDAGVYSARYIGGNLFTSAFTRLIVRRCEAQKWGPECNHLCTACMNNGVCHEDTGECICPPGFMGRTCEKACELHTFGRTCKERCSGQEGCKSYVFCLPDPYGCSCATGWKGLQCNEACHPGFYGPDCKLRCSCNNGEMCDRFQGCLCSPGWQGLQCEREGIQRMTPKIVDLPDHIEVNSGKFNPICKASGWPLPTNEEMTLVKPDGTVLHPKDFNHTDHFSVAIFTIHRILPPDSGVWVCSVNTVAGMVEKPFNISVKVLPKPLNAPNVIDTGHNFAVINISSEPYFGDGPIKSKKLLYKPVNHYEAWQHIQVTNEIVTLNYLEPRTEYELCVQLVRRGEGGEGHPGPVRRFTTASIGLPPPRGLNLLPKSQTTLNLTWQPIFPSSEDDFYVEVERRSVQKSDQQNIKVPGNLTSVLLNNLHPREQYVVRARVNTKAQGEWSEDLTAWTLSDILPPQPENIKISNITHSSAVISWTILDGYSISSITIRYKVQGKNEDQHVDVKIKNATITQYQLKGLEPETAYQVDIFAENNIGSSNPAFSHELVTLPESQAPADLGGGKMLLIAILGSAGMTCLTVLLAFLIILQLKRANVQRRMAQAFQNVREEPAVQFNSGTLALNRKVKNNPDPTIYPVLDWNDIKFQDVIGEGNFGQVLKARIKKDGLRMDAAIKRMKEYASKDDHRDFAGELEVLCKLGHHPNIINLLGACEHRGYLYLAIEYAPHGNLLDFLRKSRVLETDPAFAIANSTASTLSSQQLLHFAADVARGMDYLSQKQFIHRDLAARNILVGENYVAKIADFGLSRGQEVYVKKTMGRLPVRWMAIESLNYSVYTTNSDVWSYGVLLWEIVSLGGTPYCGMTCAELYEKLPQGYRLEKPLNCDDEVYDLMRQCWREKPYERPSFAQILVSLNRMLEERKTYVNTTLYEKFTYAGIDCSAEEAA

Molecule	ocular effects of methionine [1]	ocular effects of methionine ([2]; 10 mM methionine in vehicle and formulated faricimab, intravitreal 50 μL/eye two times)	ocular effects of methionine ([2]; methionine (5-25 mM) in vehicle, intravitreal 50 μL/eye up to six times)	Kd [3] [nM]
CSCC[C@H](N)C(=O)O [methionine]	no ocular effects	no ocular effects	no ocular effects	–
Ang-1: angiopoietin-1, ligand of TIE2 (protein, UniProt Q15389 16-498, looked up) Angiopoietin-1: HIGCSNQRRSPENSGRRYNRIQHGQCAYTFILPEHDGNCRESTTDQYNTNALQRDAPHVEPDFSSQKLQHLEHVMENYTQWLQKLENYIVENMKSEMAQIQQNAVQNHTATMLEIGTSLLSQTAEQTRKLTDVETQVLNQTSRLEIQLLENSLSTYKLEKQLLQQTNEILKIHEKNSLLEHKILEMEGKHKEELDTLKEEKENLQGLVTRQTYIIQELEKQLNRATTNNSVLQKQQLELMDTVHNLVNLCTKEGVLLKGGKREEEKPFRDCADVYQAGFNKSGIYTIYINNMPEPKKVFCNMDVNGGGWTVIQHREDGSLDFQRGWKEYKMGFGNPSGEYWLGNEFIFAITSQRQYMLRIELMDWEGNRAYSQYDRFHIGNEKQNYRLYLKGHTGTAGKQSSLILHGADFSTKDADNDNCMCKCALMLTGGWWFDACGPSNLNGMFYTAGQNHGKLNGIKWHYFKGPSYSLRSTTMMIRPLDF	–	–	–	3
